{
  "source": "patent US11851391B2",
  "about": "“Antifungal compounds and methods of forming the same” (University of Kentucky Research Foundation, priority 2018, dated 2023)",
  "key": {"[1]": {"test_system": "C. albicans ATCC 10231 (strain A)", "assay": "Time-kill assay", "format": "cell-based, Candida albicans", "excerpt": "(§1) To determine the fungistatic or fungicidal nature of the compounds, time-kill assays were next performed over a 24-hour period with 4,4′-bis((E)-1-(2-(4-fluorophenyl)hydrazono)ethyl)-1,1′-biphenyl (17c).\n(§2) Time-kill assays were used to assess the inhibitory efficiency of compound 17c against two yeast strains, C. albicans ATCC 10231 (strain A) and C. albicans ATCC 64124 (strain B). The protocol for time-kill assays followed methods previously described with minor modifications. Yeast cultures were grown overnight in YPD medium at 35° C. with shaking at 200 rpm. A working stock of fungal cells was made by diluting cultures in RPMI 1640 medium to an OD600 of 0.125 (˜1×10^6 CFU/mL). From the working stock, 100 μL of cells were added to 4.9 mL of RPMI 1640 medium in sterile culture tubes, making the starting fungal cell concentration […]. Compounds were then added to the fungal cells. […] The treated fungal cultures were incubated at 35° C. with 200 rpm shaking for 24 h. Samples were aliquoted from the different treatments at regular time points (0, 3, 6, 9, 12, and 24 h) and plated in duplicate. For each time point, cultures were vortexed, 100 μL of culture were aspirated, and 10-fold serial dilutions were made in sterile ddH2O. From the appropriate dilutions, 100 μL of fungal suspension was spread onto PDA plates and incubated at 35° C. for 48 h before colony were counted. At 24 h, 50 μL of 1 mM resazurin in PBS was added to the treatments and incubated at 35° C. with 200 rpm shaking for 2 h in the dark for visual inspection (FIGS. 5A-D). Experiments were performed in duplicate."}, "[2]": {"test_system": "C. albicans ATCC 64124 (strain B)", "assay": "Time-kill assay", "format": "cell-based, Candida albicans", "excerpt": "as §1, §2"}},
  "note": "“Also recorded” adds a separate entry of the source.",
  "data": [
    {"smiles": "C/C(=N\\Nc1ccc(F)cc1)c1ccc(-c2ccc(/C(C)=N/Nc3ccc(F)cc3)cc2)cc1", "note": "[Compound 17c, 4,4′-bis((E)-1-(2-(4-fluorophenyl)hydrazono)ethyl)-1,1′-biphenyl]", "values": [
      {"measurement": "reduction in fungal growth compared with VOR", "setting": "[1]; 17c at one-half of the MIC value versus VOR at the MIC value", "value": "greater reduction in fungal growth"},
      {"measurement": "fungistatic or fungicidal nature", "setting": "[1]; 24-hour period, 0.5x, 1x, 2x MIC", "value": "fungistatic; also recorded: more fungistatic than the control drug VOR"},
      {"measurement": "reduction in fungal growth compared with VOR", "setting": "[2]; 17c at equal to or one-half of the MIC value versus VOR at the MIC value", "value": "greater reduction in fungal growth"},
      {"measurement": "fungistatic or fungicidal nature", "setting": "[2]; 24-hour period, up to twice its MIC value", "value": "fungistatic; also recorded: more fungistatic than the control drug VOR"}
    ]}
  ]
}
